Reference: the NIST ThermoML archive (doi:10.1016/j.jct.2017.01.011)

Experiment: xn = mol fraction of the nth substance listed
Conditions: 100 kPa, Liquid; for speed of sound: Frequency=3 MHz, Single path-length method; for mass density: Vibrating tube method

OCC(O)CO [glycerol] + O
Conditions	mass density, 283.15 K [kg/m3]	mass density, 293.15 K [kg/m3]	mass density, 303.15 K [kg/m3]	mass density, 313.15 K [kg/m3]	speed of sound, 283.15 K [m/s]	speed of sound, 293.15 K [m/s]	speed of sound, 303.15 K [m/s]	speed of sound, 313.15 K [m/s]
x2 = 0	1267	1261	1255	1248	1942.3	1922.9	1901	1879.3
x2 = 0.1003	1261	1255	1249	1243	1951.7	1922	1897.9	1875.7
x2 = 0.1998	1254	1248	1242	1236	1940.9	1915.6	1893.3	1871.9
x2 = 0.3014	1246	1240	1234	1228	1931.5	1909	1888	1867.3
x2 = 0.4042	1236	1230	1224	1218	1919.2	1899.3	1879.7	1859.8
x2 = 0.5011	1224	1218	1212	1205	1903.7	1886	1867.9	1849.3
x2 = 0.6011	1206	1201	1194	1188	1879.7	1864.7	1848.8	1832
x2 = 0.7003	1183	1177	1172	1166	1841.6	1830.6	1818.2	1804.5
x2 = 0.7999	1148	1143	1137	1131	1772.9	1769.3	1763.5	1755.4
x2 = 0.9024	1091	1087	1083	1078	1648.7	1659.3	1665.8	1668.4

OCC(O)CO [glycerol] + CO
Conditions	mass density, 283.15 K [kg/m3]	mass density, 293.15 K [kg/m3]	mass density, 303.15 K [kg/m3]	mass density, 313.15 K [kg/m3]	speed of sound, 283.15 K [m/s]	speed of sound, 293.15 K [m/s]	speed of sound, 303.15 K [m/s]	speed of sound, 313.15 K [m/s]
x2 = 0	1267	1261	1255	1248	1942.3	1922.9	1901	1879.3
x2 = 0.1003	1244	1238	1232	1225	1901.8	1873	1848.8	1826.1
x2 = 0.1997	1220	1213	1207	1200	1841.5	1816.1	1792.7	1770
x2 = 0.3002	1192	1186	1179	1172	1779.2	1755.3	1732.3	1709.5
x2 = 0.4011	1158	1152	1145	1138	1708.9	1684.6	1660.7	1637.1
x2 = 0.4999	1119	1112	1105	1098	1628.4	1604	1579.6	1555.3
x2 = 0.5998	1075	1068	1060	1053	1546.5	1521.1	1495.6	1470.4
x2 = 0.7	1024	1016	1009	1001	1457.7	1430.9	1404.2	1377.6
x2 = 0.8002	964	956	947	939	1364.5	1336.1	1307.8	1279.7
x2 = 0.8999	892	883	874	865	1265.5	1234.9	1204.5	1174.5

OCC(O)CO [glycerol] + CCO
Conditions	mass density, 283.15 K [kg/m3]	mass density, 293.15 K [kg/m3]	mass density, 303.15 K [kg/m3]	mass density, 313.15 K [kg/m3]	speed of sound, 283.15 K [m/s]	speed of sound, 293.15 K [m/s]	speed of sound, 303.15 K [m/s]	speed of sound, 313.15 K [m/s]
x2 = 0	1267	1261	1255	1248	1942.3	1922.9	1901	1879.3
x2 = 0.0999	1233	1227	1220	1214	1882.1	1852.5	1827.9	1804.6
x2 = 0.2002	1199	1193	1186	1179	1804.3	1778.9	1753.4	1729.7
x2 = 0.2998	1161	1155	1148	1140	1721.8	1696.1	1671.4	1647.2
x2 = 0.4001	1120	1113	1106	1099	1639.2	1613.3	1587.9	1562.8
x2 = 0.4993	1077	1069	1062	1055	1557.7	1530.9	1504.6	1478.5
x2 = 0.6004	1029	1021	1014	1006	1476.1	1448.4	1421.1	1394
x2 = 0.699	978	970	963	955	1401.7	1372.8	1344.2	1315.8
x2 = 0.9002	862	854	845	837	1263.5	1231.4	1199.4	1167.7
